Molecular target: T1, ERα (Homo sapiens, UniProt P03372)
T1 construct: MCF-7 (ATCC; Cat. No.: HTB-22), a Luminal A breast cancer cell; culture medium EMEM; host or cells: MCF-7
T1 sequence (P03372 1-595): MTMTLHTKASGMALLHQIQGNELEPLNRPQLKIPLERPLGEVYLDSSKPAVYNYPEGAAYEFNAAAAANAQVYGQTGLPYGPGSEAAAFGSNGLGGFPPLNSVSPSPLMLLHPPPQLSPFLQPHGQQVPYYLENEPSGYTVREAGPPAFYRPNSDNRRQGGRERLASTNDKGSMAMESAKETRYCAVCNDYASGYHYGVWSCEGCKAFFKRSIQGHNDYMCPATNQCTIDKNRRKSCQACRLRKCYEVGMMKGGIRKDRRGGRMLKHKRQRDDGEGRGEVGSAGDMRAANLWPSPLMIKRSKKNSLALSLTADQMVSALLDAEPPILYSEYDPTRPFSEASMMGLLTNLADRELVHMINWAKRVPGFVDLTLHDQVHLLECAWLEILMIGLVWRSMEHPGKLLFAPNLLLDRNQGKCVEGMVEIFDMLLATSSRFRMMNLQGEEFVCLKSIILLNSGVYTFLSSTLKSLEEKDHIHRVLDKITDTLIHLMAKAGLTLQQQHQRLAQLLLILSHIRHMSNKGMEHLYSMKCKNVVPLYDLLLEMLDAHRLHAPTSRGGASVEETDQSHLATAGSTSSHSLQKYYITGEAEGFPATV
Assay: iELISA of ER degradation in MCF-7 cells (Effect Example 1)
Type: cell-based
Settings: MCF-7 iELISA, processing time 4 hours, starting concentration 1 μM; for Dmax: MCF7; for DC50: read-out: DC50 (drug concentration corresponding to 50% protein degradation)
Source text: 1. Cell Line • Breast cancer cell line and its culture medium: • MCF-7 (ATCC; Cat. No.: HTB-22), a Luminal A breast cancer cell; culture medium EMEM.
2. Reagents • Culture medium EMEM (Gibco, 1964507) • Fetal bovine serum (Gibco, 10091148) • Penicillin-streptomycin double antibody (Gibco, S110JV) • DPBS (Gibco, 14190-144) • CellTiter-Glo® assay kit (Promega, G7573) • Trypsin (0.25%) (Gibco, 25200-056) • DMSO (Sigma, D2650)
3. Instruments • Biosafety cabinet (AIRTECH, BSC-1300A II) • Automated cell counter (Life Technologies, countess II) • Multifunctional microplate reader (Biotek, H1FM) • Orbital shaker (Hangzhou Allsheng Instruments Co., Ltd., OS-100) • XLFIT 5.3 (Inforstack Shanghai Co., Ltd.)
For this test method, the following experiments were performed in a biosafety cabinet, with the specific steps as follows: • (1) On the first day, cells were inoculated in a 96-well plate, the previous culture medium was poured off, 5 mL of DPBS was added to wash the cells, and then DPBS was pipetted and discarded. 1 mL of trypsin (0.25%) was then added. The plate was digested in a 37° C., 5% CO2 cell incubator for about 2 to 5 minutes and then taken out. A new corresponding culture medium was added, and pipetted up and down to resuspend the cells evenly. The cells were then counted using an automated cell counter. • (2) Each cell was inoculated in columns 1 to 12 of a 96-well plate (Corning, Cat. No.: 356690) at a density of 30,000 cells per well in 100 μL of culture medium. The plate was then placed in a 37° C., 5% CO2 incubator for 24 hours. • (3) On the second day, the compound of the present disclosure was 4-fold serially diluted to 10 dose points starting at 1 μM. 10 μL of the serially diluted compound was pipetted and added to 100 μL of cells in columns 1 to 10, and 10 μL of the corresponding culture medium containing 0.33 v % DMSO was added to both columns 11 and 12. The plate was incubated in a 37° C., 5% CO2 incubator for 4 hours (Note: column 11 was used as a MIN well without compound and primary antibody but with secondary antibody; column 12 was used as a MAX well without compound but with primary antibody and secondary antibody). • (4) The culture medium was then removed. The cells were washed once with 100 µL of DPBS, and fixed with 100 μL of 1 v % formaldehyde (CST; Cat. No.: 12606) fixative at room temperature for 30 minutes. • (5) The fixative was removed. The cells were washed once with 100 μL of DPBS, and permeabilized with 100 μL of 80 v % pre-cooled methanol (Jiazu-chemical; Cat. No.: 67-56-1) at 4° C. for 15 minutes. • (6) Methanol was removed, and the cells were washed once with 100 μL of DPBS. The plate was added with 100 μL of primary antibody (1:5000, a volume ratio of primary antibody to BSA; manufacturer of primary antibody: Invitrogen, Cat. No.: MA5-14501), and incubated at 4° C. overnight. • (7) Primary antibody was removed, and the cells were washed three times with […] of DPBS. The plate was added with 100 μL of secondary antibody (1:2500, a volume ratio of secondary antibody to BSA; manufacturer of secondary antibody: Univ, Cat. No.: abs20002), and incubated at room temperature for 1 hour. • (8) Secondary antibody was removed, and the cells were washed three times with […] of DPBS. The plate was added with 100 μL of tetramethylbenzidine (TMB) (CST; Cat. No.: 7004), and incubated at room temperature for 1 hour. • (9) The plate was added with 100 μL of stop buffer (CST; Cat. No.: 7002), and incubated at room temperature for 10 minutes. The OD450 signal value was detected with a multifunctional microplate reader, and finally, the degradation effect of the compound of the present disclosure on ER was plotted by XLFIT software, and the DC50 value of the compound of the present disclosure (drug concentration corresponding to 50% protein degradation) was calculated; Dmax=[(the highest level of ERα−the lowest level of ERα)/(the highest level of ERα)].

Dmax [%]	DC50 [nM]	SMILES
43		CCN(CCOc1ccc(Oc2c(-c3ccc(S(C)(=O)=O)cc3)ccc3cc(O)ccc23)cc1)CC(=O)N1CCN(c2ccc3c(c2)C(=O)N(C2CCC(=O)NC2=O)C3=O)CC1 (centres unmarked) [Compound D8, 2-(2,6-dioxopiperidin-3-yl)-5-(4-(N-ethyl-N-(2-(4-((6-hydroxy-2-(4-(methylsulfonyl)phenyl)naphthalen-1-yl)oxy)phenoxy)ethyl)glycyl)piperazin-1-yl)isoindoline-1,3-dione]
35		CS(=O)(=O)c1ccc(-c2ccc3cc(O)ccc3c2Oc2ccc(OCCOCCOCCN3CCN(c4ccc5c(c4)CN(C4CCC(=O)NC4=O)C5=O)CC3)cc2)cc1 (centres unmarked) [Compound D30]
60	7.6	C[C@@H]1CN(CCOCC(=O)N2CCN(c3ccc4c(c3)C(=O)N(C3CCC(=O)NC3=O)C4=O)CC2)[C@@H](C)CN1CCOc1ccc(Oc2c(-c3ccc(S(C)(=O)=O)cc3)ccc3cc(O)ccc23)cc1 (stereo partly drawn) [Compound D15, 2-(2,6-dioxopiperidin-3-yl)-5-(4-(2-(2-((2S,5R)-4-(2-(4-((6-hydroxy-2-(4-(methylsulfonyl)phenyl)naphthalen-1-yl)oxy)phenoxy)ethyl)-2,5-dimethylpiperazin-1-yl)ethoxy)acetyl)piperazin-1-yl)isoindoline-1,3-dione]
54	4.9	CS(=O)(=O)c1ccc(-c2ccc3cc(O)ccc3c2Oc2ccc(OCCOCCOCCN3CCN(c4ccc5c(c4)C(=O)N(C4CCC(=O)NC4=O)C5)CC3)cc2)cc1 (centres unmarked) [Compound D22, 3-(6-(4-(2-(2-(2-(4-((6-hydroxy-2-(4-(methylsulfonyl)phenyl)naphthalen-1-yl)oxy)phenoxy)ethoxy)ethoxy)ethyl)piperazin-1-yl)-1-oxoisoindolin-2-yl)piperidine-2,6-dione]
34		CCN(CCOCCOCCN1CCN(c2ccc3c(c2)C(=O)N(C2CCC(=O)NC2=O)C3=O)CC1)CCOc1ccc(Oc2c(-c3ccc(S(C)(=O)=O)cc3)ccc3cc(O)ccc23)cc1 (centres unmarked) [Compound D28, 2-(2,6-dioxopiperidin-3-yl)-5-(4-(2-(2-(2-(ethyl(2-(4-((6-hydroxy-2-(4-(methylsulfonyl)phenyl)naphthalen-1-yl)oxy)phenoxy)ethyl)amino)ethoxy)ethoxy)ethyl)piperazin-1-yl)isoindoline-1,3-dione]
32		CS(=O)(=O)c1ccc(-c2ccc3cc(O)ccc3c2Oc2ccc(OCCOCCOCCOCCOc3ccc4c(c3)C(=O)N(C3CCC(=O)NC3=O)C4)cc2)cc1 (centres unmarked) [Compound D35, 3-(6-(2-(2-(2-(2-(4-((6-hydroxy-2-(4-(methylsulfonyl)phenyl)naphthalen-1-yl)oxy)phenoxy)ethoxy)ethoxy)ethoxy)ethoxy)-1-oxoisoindolin-2-yl)piperidine-2,6-dione]
69	7.5	CS(=O)(=O)c1ccc(-c2ccc3cc(O)ccc3c2Oc2ccc(OCCOCCOCCOCCN3CCN(c4ccc5c(c4)C(=O)N(C4CCC(=O)NC4=O)C5)CC3)cc2)cc1 (centres unmarked) [Compound D21]
48		C[C@@H]1CN(CCOc2ccc(Oc3c(-c4ccc(S(C)(=O)=O)cc4)ccc4cc(O)ccc34)cc2)[C@@H](C)CN1CCOCC(=O)N1CCN(c2ccc3c(c2)CN(C2CCC(=O)NC2=O)C3=O)CC1 (stereo partly drawn) [Compound D9, 3-(5-(4-(2-(2-((2R,5S)-4-(2-(4-((6-hydroxy-2-(4-(methylsulfonyl)phenyl)naphthalen-1-yl)oxy)phenoxy)ethyl)-2,5-dimethylpiperazin-1-yl)ethoxy)acetyl)piperazin-1-yl)-1-oxoisoindolin-2-yl)piperidine-2,6-dione]
35		CCN(CCCCCN(C)CC(=O)N1CCN(c2ccc3c(c2)C(=O)N(C2CCC(=O)NC2=O)C3=O)CC1)CCOc1ccc(Oc2c(-c3ccc(S(C)(=O)=O)cc3)ccc3cc(O)ccc23)cc1 (centres unmarked) [Compound D31, 2-(2,6-dioxopiperidin-3-yl)-5-(4-(N-(5-(ethyl(2-(4-((6-hydroxy-2-(4-(methylsulfonyl))phenyl)naphthalen-1-yl)oxy)phenoxy)ethyl)aminopentyl)-N-methylglycyl)piperazin-1-yl)isoindoline-1,3-dione]
45		CCN(CCOc1ccc(Oc2c(-c3ccc(S(C)(=O)=O)cc3)ccc3cc(O)ccc23)cc1)C(=O)c1ccc(CCC2CCN(C3CCN(c4ccc5c(c4)C(=O)N(C4CCC(=O)NC4=O)C5=O)CC3)CC2)cc1 (centres unmarked) [Compound D34, 4-(2-(1′-(2-(2,6-dioxopiperidin-3-yl)-1,3-dioxoisoindolin-5-yl)-[1,4′-bipiperidin]-4-yl)ethyl)-N-ethyl-N-(2-(4-((6-hydroxy-2-(4-(methylsulfonyl)phenyl)naphthalen-1-yl)oxy)phenoxy)ethyl)benzamide]
40		CS(=O)(=O)c1ccc(-c2ccc3cc(O)ccc3c2Oc2ccc(N3CCN(CCCCCOCC(=O)N4CCN(c5ccc6c(c5)CN(C5CCC(=O)NC5=O)C6=O)CC4)CC3)cc2)cc1 (centres unmarked) [Compound D11, 3-(5-(4-(2-((5-(4-(4-((6-hydroxy-2-(4-(methylsulfonyl)phenyl)naphthalen-1-yl)oxy)phenyl)piperazin-1-yl)pentyl)oxy)acetyl)piperazin-1-yl)-1-oxoisoindolin-2-yl)piperidine-2,6-dione]
67	0.5	CS(=O)(=O)c1ccc(-c2ccc3cc(O)ccc3c2Oc2ccc(OCCCCN3CCN(c4ccc5c(c4)CN(C4CCC(=O)NC4=O)C5=O)CC3)cc2)cc1 (centres unmarked) [Compound D59, 3-(5-(4-(4-(4-((6-hydroxy-2-(4-(methylsulfonyl)phenyl)naphthalen-1-yl)oxy)phenoxy)butyl)piperazin-1-yl)-1-oxoisoindolin-2-yl)piperidine-2,6-dione]
47		CS(=O)(=O)c1ccc(-c2ccc3cc(O)ccc3c2Oc2ccc(OCCOCCOCCOCCN3CCN(c4ccc5c(c4)C(=O)N(C4CCC(=O)NC4=O)C5=O)CC3)cc2)cc1 (centres unmarked) [Compound D19]

— patent publication US20240131168A1, “NAPHTHALENE RING-CONTAINING COMPOUND, PHARMACEUTICAL COMPOSITION CONTAINING SAME, AND USE THEREOF” (JIANGSU YAHONG MEDITECH CO., LTD., priority 2021, published 2024)
